Data on one compound can be found in ChEMBL document CHEMBL2073985, “Increase in doxorubicin cytotoxicity by carvedilol inhibition of P-glycoprotein activity” (Biochem Pharmacol, 1999).

In the data set the target is ATP-dependent translocase ABCB1 (Homo sapiens, UniProt P08183). The experiment in a line: TP_TRANSPORTER: increase in Calcein intracellular accumulation (Calcein: 50 mg/L, Carvedilol: 10 uM) in Hs578T-Dox cells. It counts as functional, cell-based.
Sequence of ATP-dependent translocase ABCB1 (P08183 whole entry): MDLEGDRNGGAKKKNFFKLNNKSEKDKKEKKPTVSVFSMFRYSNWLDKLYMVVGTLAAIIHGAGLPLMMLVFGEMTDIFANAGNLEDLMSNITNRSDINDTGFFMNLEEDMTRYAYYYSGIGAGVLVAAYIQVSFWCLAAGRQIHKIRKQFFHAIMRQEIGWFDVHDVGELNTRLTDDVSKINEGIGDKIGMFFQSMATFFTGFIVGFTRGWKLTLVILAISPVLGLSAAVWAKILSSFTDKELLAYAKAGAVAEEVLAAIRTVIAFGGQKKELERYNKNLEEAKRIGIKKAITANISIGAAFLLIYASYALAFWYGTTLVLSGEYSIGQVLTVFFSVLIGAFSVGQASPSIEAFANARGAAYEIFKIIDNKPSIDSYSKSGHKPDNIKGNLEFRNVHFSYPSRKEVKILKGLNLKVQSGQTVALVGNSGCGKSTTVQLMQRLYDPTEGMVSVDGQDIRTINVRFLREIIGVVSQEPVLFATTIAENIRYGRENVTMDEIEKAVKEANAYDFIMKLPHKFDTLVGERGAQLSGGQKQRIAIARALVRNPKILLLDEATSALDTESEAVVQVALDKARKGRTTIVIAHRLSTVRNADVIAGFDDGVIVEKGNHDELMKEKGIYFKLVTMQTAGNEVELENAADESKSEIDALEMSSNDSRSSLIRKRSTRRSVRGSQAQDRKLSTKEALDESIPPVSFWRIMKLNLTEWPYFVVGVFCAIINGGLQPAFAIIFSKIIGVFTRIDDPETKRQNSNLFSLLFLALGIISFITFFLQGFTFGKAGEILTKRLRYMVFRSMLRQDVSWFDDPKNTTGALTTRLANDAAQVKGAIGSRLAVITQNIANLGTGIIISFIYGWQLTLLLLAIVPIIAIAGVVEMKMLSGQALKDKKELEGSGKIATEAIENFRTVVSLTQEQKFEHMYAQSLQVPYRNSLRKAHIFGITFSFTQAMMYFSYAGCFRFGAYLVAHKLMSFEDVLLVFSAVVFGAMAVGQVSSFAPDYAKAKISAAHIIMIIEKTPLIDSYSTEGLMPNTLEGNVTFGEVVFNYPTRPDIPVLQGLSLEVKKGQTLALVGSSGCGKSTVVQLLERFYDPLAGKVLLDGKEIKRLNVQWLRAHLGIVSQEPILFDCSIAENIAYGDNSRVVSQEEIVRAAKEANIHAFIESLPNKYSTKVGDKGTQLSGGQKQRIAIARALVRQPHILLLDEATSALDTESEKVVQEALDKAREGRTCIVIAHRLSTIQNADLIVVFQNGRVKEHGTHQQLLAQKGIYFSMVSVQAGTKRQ

Consider `COc1ccccc1OCCNCC(O)COc1cccc2[nH]c3ccccc3c12` (stereo unspecified) [CARVEDILOL], for which the Activity result is “inhibitor [+]”.
